From paper PMC11143257, “Atomistic mechanism of coupling between cytosolic sensor domain and selectivity filter in TREK K2P channels” (Nature Communications, 2024)
Changes are numbered by the printed parent chain.

What was measured:
TREK-2* = target: T1, TREK-2* (Homo sapiens, UniProt P57789); assay: Activation of truncated construct; type: cell-based; parameters: was truncated from WT and includes amino acids 67 - 355; expressed in transfected cells; host or cells: Xenopus laevis oocytes (cRNA injection, pFAW vector); details: comparable to WT, peer review file
T1 sequence (P57789 67-355 isoform P57789-4): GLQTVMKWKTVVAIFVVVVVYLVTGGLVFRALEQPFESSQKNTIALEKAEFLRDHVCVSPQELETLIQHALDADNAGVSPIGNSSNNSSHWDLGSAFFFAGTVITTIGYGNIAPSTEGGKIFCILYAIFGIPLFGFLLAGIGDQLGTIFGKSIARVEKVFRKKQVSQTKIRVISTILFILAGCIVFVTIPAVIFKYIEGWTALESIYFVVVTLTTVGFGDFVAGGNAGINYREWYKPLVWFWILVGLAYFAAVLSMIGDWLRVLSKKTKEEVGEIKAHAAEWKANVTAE
Source text: page 27: Answer: We agree with the reviewer that applying statistical tests to our simulation data would enhance the confidence in interpreting some of the results. However, in this study, due to the relatively large size of the systems that require extensive simulation time, we were limited to conducting only five to seven independent simulation runs for each setup. According to the checklist and recommendations provided by Nature Journal (PMID: 36918708), a minimum of three simulations per condition is advisable. Given that we only have data from these limited simulation runs, conducting a p-test is challenging. Nonetheless, as we noted in the main text, in all 5 simulations of the down-state, we observed a robust conformational change at the S1 binding site. Conversely, in all five up-state simulations, the SF remained a conductive conformation. […] Minor comments: Are there any differences in function between full-length TREK-2 and the TREK-2* construct? […] 22

TREK-1 F325C = target: T2, TREK-1 F325C (Homo sapiens, UniProt O95069, F325C); assay: MTS probe modification, inside-out patch-clamp; type: cell-based; details: MTS-ET+ 1 mM, symmetrical K+, -80 mV (Supplementary Fig. 2d)
T2 construct: expressed in transfected cells; host or cells: Xenopus laevis oocytes (cRNA injection), excised inside-out patches
T2 sequence (O95069 1-426 F325C): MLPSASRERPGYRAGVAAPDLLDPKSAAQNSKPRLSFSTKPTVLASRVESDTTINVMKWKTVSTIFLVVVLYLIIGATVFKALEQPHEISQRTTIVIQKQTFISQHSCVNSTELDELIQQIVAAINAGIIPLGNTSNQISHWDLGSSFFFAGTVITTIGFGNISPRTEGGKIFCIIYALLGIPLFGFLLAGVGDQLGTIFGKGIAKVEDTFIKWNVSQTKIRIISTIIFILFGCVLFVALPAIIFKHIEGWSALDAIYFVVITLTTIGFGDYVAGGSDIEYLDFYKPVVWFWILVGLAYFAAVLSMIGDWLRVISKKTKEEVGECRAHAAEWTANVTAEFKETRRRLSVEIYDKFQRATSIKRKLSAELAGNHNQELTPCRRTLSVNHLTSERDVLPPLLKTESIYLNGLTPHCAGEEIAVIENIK
Method: (§1) First, we measured WT TREK-1, WT TRAAK and TREK-2^* channels without modifiable cysteine residues as references. […] Note, that patch integrity and channel regulation were tested with either 1 mM tetra-pentyl-ammonium (TPenA) and a short pHi activation step. Next, we conducted systematic cysteine scanning mutagenesis of the entire pCt and examined the effect of charged and aliphatic MTS probes.
(§2) Xenopus laevis oocytes were surgically removed from anesthetized adult females, treated with type II collagenase (Sigma-Aldrich/Merck, Germany) and manually defolliculated. A solution containing the K^+ channel-specific cRNA at a desired concentration was injected into Dumont stage V - VI oocytes and subsequently incubated at 17 °C in a solution containing (mM): 54 NaCl, […], 2.4 NaHCO3, 0.82 MgSO4 x 7 H2O, 0.41 CaCl2, 0.33 Ca(NO3)2 x 4 H2O and 7.5 TRIS (pH 7.4 adjusted with NaOH/HCl) for 1 - 7 days before use. Patch-clamp recordings in an inside-out configuration under voltage-clamp conditions were performed at room temperature (22 - 24 °C). Patch pipettes were made from thick-walled borosilicate glass GB 200TF-8P (Science Products, Germany), had resistances of 0.2 - 0.5 MΩ (tip diameter of 10 - 25 µm) and filled with a pipette solution (in mM): 120 KCl, 10 HEPES and 3.6 CaCl2 (pH 7.4 adjusted with KOH/HCl). Intracellular bath solutions and compounds were applied to the cytoplasmic side of excised patches for the various K^+ channels via a gravity flow multi-barrel pipette system. The intracellular solution had the following composition (in mM): 120 KCl, 10 HEPES, 2 EGTA, and 1 Pyrophosphate (pH adjusted with KOH/HCl). Currents were recorded with an EPC10 amplifier (HEKA electronics, Germany) and sampled at 10 kHz or higher and filtered with 3 kHz (-3 dB) or higher as appropriate for the sampling rate.
(§3) Tetra-pentyl-ammonium chloride (TPenA) was purchased from Merck (Sigma-Aldrich), prepared as 100 mM stocks in intracellular recording solution, stored at −20 °C and diluted to a final concentration in intracellular recording solution before measurements. Decyl-MethaneThioSulfonate (Decyl-MTS), (2-(trimethylammonium)ethyl)MethaneThioSulfonate bromide (MTS-ET^+) and Sodium (2-sulfonatoethyl)MethaneThioSulfonate (MTS-ES^-) were purchased from Toronto Research Chemicals. MTS-ET^+ was directly dissolved to the desired concentration of 1 mM in the intracellular recording solution before each experiment. MTS-ET^+ was used immediately after dilution for maximally 5 min. Decyl-MTS and […] were prepared as 10 - 100 mM stocks in DMSO and diluted to the desired concentration before the measurements.
(§4) The fold current increase (fold activation) of a ligand (decyl-MTS) was calculated from the following equation:1 FoldactivationFA=Iactivated/Ibasal with Iactivated represents the stable current level in the presence of 100 µM decyl-MTS and Ibasal the measured current before application of the MTS probe.

TREK-1 T318C = target: T3, TREK-1 T318C (Homo sapiens, UniProt O95069, T318C); assay: MTS probe modification, inside-out patch-clamp; type: cell-based; details: MTS-ET+ 1 mM, symmetrical K+, -80 mV (Supplementary Fig. 2d)
T3 construct: expressed in transfected cells; host or cells: Xenopus laevis oocytes (cRNA injection), excised inside-out patches
T3 sequence (O95069 1-426 T318C): T2 sequence (O95069 1-426 F325C) with T318C, C325F
Method: as §1, §2, §3, §4

TREK-1 V322C = target: T4, TREK-1 V322C (Homo sapiens, UniProt O95069, V322C); assay: MTS probe modification, inside-out patch-clamp; type: cell-based; details: MTS-ET+ 1 mM, symmetrical K+, -80 mV (Supplementary Fig. 2d)
T4 construct: expressed in transfected cells; host or cells: Xenopus laevis oocytes (cRNA injection), excised inside-out patches
T4 sequence (O95069 1-426 V322C): T2 sequence (O95069 1-426 F325C) with V322C, C325F
Method: as §1, §2, §3, §4

hTREK-1 = assay: Direct application of PKC inhibitor, HEK293 whole-cell; type: cell-based, human; details: 1.0 µM; HEK293 cells, whole-cell configuration; within 30 min; n = 6
Method: Further, we also tested the direct application of 1.0 µM of the PKC inhibitor BIM I to HEK293 cells (in whole-cell configuration) expressing hTREK-1. Similarly, under these conditions, TREK-1 channel currents were not altered within 30 min. (n = 6). Thus, it appears that under […]
of the PKC site. Unfortunately, it is not known which phosphatase mediates the dephosphorylation of the PKC site in TREK channels nor are pharmacological phosphatase activators known that could be used promote the dephosphorylation.
The interaction network analysis provides possible explanations for how TM4 movement is transduced to SF gate opening. As mentioned, this analysis highlights a number of residues […]
W326, R237 in Dong et al., 2015). The authors are well placed to determine whether mutation of these residues, in silico, destabilizes the down-state and to show how this might promote stabilization of the conductive SF. […]
through interaction network analysis and previous mutation studies, can aid in studying the conformational change from down- to up-state in the channel and how this is related to the conformational change in the SF. However, the timescale for the conformational movement in […]
2 channels. In only 3 out of 7 simulations, each lasting 3 μs, did we observe a complete transition from up to down. […]
well-suited for assessing the impact of mutations. […]

WT hTREK-2 = assay: Direct application of PKC inhibitor, oocytes; type: cell-based, human; details: oocytes expressing WT hTREK-2
Source text: This study by Türkaydin and colleagues combines functional studies of TREK channels with MD simulations and proposes an explanation for the molecular mechanism of phosphorylation-mediated regulation of channel activity, and a general framework for how down-to-up transitions of TM4 is coupled to activation of the SF gate. Using elegant MTS-modification, phospho-mimetic mutagenesis, and norfluoxetine sensitivity experiment - and […]
TM4 increases channel opening which is a plausible explanation for the inverse inhibitory effect of phosphorylation of the extended M4 helix.
The molecular dynamics approaches are mostly outside of my expertise and so I cannot comment on the technical elements. However, the interaction network analysis supports previous models that upwards movement of TM4 is associated with opening of the SF gate and highlights previously identified and potential novel residues responsible. […]
results provide interesting advances which improve our understanding of TREK channel […]
We thank the reviewer for the positive evaluation of our work and the many helpful comments to improve the manuscript. The reviewer specific comments are addressed below:
- and this is an excellent opportunity to clarify some important outstanding questions in the […]
state. This is an interesting and important finding, which would help to explain TREK channel regulation in vivo. […]

CCCCC/C=C\C/C=C\C/C=C\C/C=C\CCCC(=O)O [arachidonic acid]
activation (TREK-2*): activated

(2-(trimethylammonium)ethyl)MethaneThioSulfonate bromide [MTS-ET^+]
effect of charged MTS probe on activity (TREK-1 F325C): channel inhibition
effect of charged MTS probe on activity (TREK-1 T318C): channel inhibition
effect of charged MTS probe on activity (TREK-1 V322C): channel inhibition

CN(C)CCCn1cc(C2=C(c3c[nH]c4ccccc34)C(=O)NC2=O)c2ccccc21 [BIM I, Bisindolylmaleimide I]
effect on TREK-1 channel currents (hTREK-1): not altered
effect on current (WT hTREK-2): did not observe a current increase
